This note sets out measurements from patent publication US7994168B2, “Hexahydro-pyrazino[1,2-A]pyrimidine-4,7-dione derivatives substituted with amino acids” (Sanofi-Aventis Deutschland GmbH, priority 2004, dated 2011).

T1 sequence (P32245 whole entry): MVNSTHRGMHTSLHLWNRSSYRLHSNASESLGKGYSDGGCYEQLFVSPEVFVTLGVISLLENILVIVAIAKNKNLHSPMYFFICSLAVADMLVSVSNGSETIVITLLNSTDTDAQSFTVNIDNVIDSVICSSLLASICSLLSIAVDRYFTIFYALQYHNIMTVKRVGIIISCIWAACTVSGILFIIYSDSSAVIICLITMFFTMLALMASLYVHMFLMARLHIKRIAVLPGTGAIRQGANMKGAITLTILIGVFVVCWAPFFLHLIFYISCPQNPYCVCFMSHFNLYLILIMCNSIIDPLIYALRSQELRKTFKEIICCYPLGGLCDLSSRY

The first assay concerns the target T1, MC4 (Homo sapiens, UniProt P32245).
T1 construct: expressed in transfected cells; host or cells: HEK293
Nature of the assay: In vitro functional assay with recombinant cells: agonist-induced changes in intracellular Ca2+ (FLIPR). As to conditions: recombinant HEK293 cells expressing MC4 and G-protein α-16; Fluo-4 Ca2+ FLIPR; 100% = 100 nM reference agonist MTII. The assay is classed as cell-based. On the procedure: In Vitro Functional Assays with Recombinant Cells
Function-testing assays were carried out by determining the agonist-induced changes in the intracellular concentration of Ca^2+ in recombinant HEK293 cells which express both MC4 and G-protein α-16 by means of the FLIPR technique (“Fluorescence Imaging Plate Reader”, Molecular Devices Corp.).
For the investigations, cells were seeded into 96-well microtiter plates (50 000 cells/well) and allowed to grow overnight. The medium was removed and the cells were incubated in buffer which contained the fluorescent dye Fluo-4. After this loading with dye, the cells were washed, test substance was added, and changes in the intracellular Ca^2+ concentration were measured in the FLIPR apparatus. Results have been shown as percentage change relative to the control (0%: no test substance added; 100%: 100 nM reference agonist MTII added), and used to calculate dose/activity plots, with subsequent determination of EC50 values.
The EC50 is the concentration needed to bring the measured effect to its halfway point. On to `CC(C)C(N)C(=O)N1CCCC1C(=O)NC1CN(S(=O)(=O)c2ccc(Cl)cc2Cl)C2CN(C3CC3)C(=O)C(Cc3cccnc3)N2C1=O` (stereo not drawn) [Example 17, N-[8-Cyclopropyl-1-(2,4-dichlorobenzenesulfonyl)-4,7-dioxo-6-pyridin-3-ylmethyloctahydropyrazino[1,2-a]pyrimidin-3-yl]-1-(2-amino-3-methylbutyryl)pyrrolidine-2-carboxamide], for which the concentration for a half-maximal effect (EC50) was determined as 3490 nM.

For the compound `CC(C)C(N)C(=O)N1CCCC1C(=O)NC1CN(S(=O)(=O)c2ccc(Cl)cc2Cl)C2CN(C)C(=O)C(Cc3ccc(Cl)cc3)N2C1=O` (stereo not drawn) [Example 13], the concentration for a half-maximal effect (EC50) worked out at 4.7 nM.

Take `CC(C)C(N)C(=O)N1CCCC1C(=O)NC1CN(S(=O)(=O)c2ccc(Cl)cc2Cl)C2CN(C(C)C)C(=O)C(Cc3cccnc3)N2C1=O` (stereo not drawn) [Example 16, N-[1-(2,4-Dichlorobenzenesulfonyl)-8-isopropyl-4,7-dioxo-6-pyridin-3-ylmethyloctahydropyrazino[1,2-a]pyrimidin-3-yl]-1-(2-amino-3-methylbutyryl)pyrrolidine-2-carboxamide]: the EC50 came out at 717 nM.

For the compound `CCN1C[C@H]2N(C(=O)C(NC(=O)C3CCCN3C(=O)C(N)C(C)C)CN2S(=O)(=O)c2ccc(Cl)cc2Cl)[C@@H](Cc2ccc(F)c(F)c2)C1=O` (stereo partly drawn) [Example 14, N-[1-(2,4-dichlorobenzenesulfonyl)-6-(3,4-difluorobenzyl)-8-ethyl-4,7-dioxooctahydropyrazino[1,2-a]pyrimidin-3-yl]-1-(2-amino-3-methylbutryl)pyrrolidine-2-carboxamide], the EC50 was found to be 1.6 nM.

For the compound `CC(C)C(N)C(=O)N1CCCC1C(=O)NC1CN(S(=O)(=O)c2ccc(Cl)cc2Cl)C2CN(CC(F)F)C(=O)C(Cc3ccc(Cl)cc3)N2C1=O` (stereo not drawn) [Example 11, N-[6-(4-Chlorobenzyl)-1-(2,4-dichlorobenzenesulfonyl)-8-(2,2-difluoroethyl)-4,7-dioxooctahydropyrazino[1,2-a]pyrimidin-3-yl]-1-(2-amino-3-methylbutyryl)pyrrolidine-2-carboxamide], the 50% effective concentration (EC50) was 0.6 nM.

Take `CC(C)CC(N)C(=O)N1CCCC1C(=O)NC1CN(S(=O)(=O)c2ccc(Cl)cc2Cl)C2CN(C(C)C)C(=O)C(Cc3ccc(Cl)cc3)N2C1=O` (stereo not drawn) [Example 4, N-[6-(4-Chlorobenzyl)-1-(2,4-dichlorobenzenesulfonyl)-8-isopropyl-4,7-dioxooctahydropyrazino[1,2-a]pyrimidin-3-yl]-1-(2-amino-4-methylpentanoyl)pyrrolidine-2-carboxamide]: the concentration giving a half-maximal response (EC50) came to 0.4 nM.

As for `CC(C)C(N)C(=O)N1CCCC1C(=O)NC1CN(S(=O)(=O)c2ccc(Cl)cc2Cl)C2CN(C(C)C)C(=O)C(Cc3ccc(F)cc3F)N2C1=O` (stereo not drawn) [Example 10, N-[1-(2,4-Dichlorobenzenesulfonyl)-6-(2,4-difluorobenzyl)-8-isopropyl-4,7-dioxooctahydropyrazino[1,2-a]pyrimidin-3-yl]-1-(2-amino-3-methylbutyryl)pyrrolidine-2-carboxamide], the EC50 is 5.7 nM.

As to `CC(C)C(N)C(=O)N1CCCC1C(=O)NC1CN(S(=O)(=O)c2cc(F)ccc2Cl)C2CN(C(C)C)C(=O)C(Cc3ccc(Cl)cc3)N2C1=O` (stereo not drawn) [Example 6, N-[6-(4-Chlorobenzyl)-1-(2-chloro-5-fluorobenzenesulfonyl)-8-isopropyl-4,7-dioxooctahydropyrazino[1,2-a]pyrimidin-3-yl]-1-(2-amino-3-methylbutyryl)pyrrolidine-2-carboxamide], the 50% effective concentration (EC50) amounted to 3.2 nM.

In the case of `CC(C)C(C(=O)N1CCCC1C(=O)NC1CN(S(=O)(=O)c2ccc(Cl)cc2Cl)C2CN(C(C)C)C(=O)C(Cc3ccc(Cl)cc3)N2C1=O)N(C)C` (stereo not drawn) [Example 5, N-[6-(4-Chlorobenzyl)-1-(2,4-dichlorobenzenesulfonyl)-8-isopropyl-4,7-dioxooctahydropyrazino[1,2-a]pyrimidin-3-yl]-1-(2-dimethylamino-3-methylbutyryl)pyrrolidine-2-carboxamide], the 50% effective concentration (EC50) was 2 nM.

As to `CC(C)C(N)C(=O)N1CCCC1C(=O)NC1CN(S(=O)(=O)c2ccc(Cl)cc2Cl)C2CN(C)C(=O)C(Cc3ccc(F)c(F)c3)N2C1=O` (stereo not drawn) [Example 15, N-[1-(2,4-Dichlorobenzenesulfonyl)-6-(3,4-difluorobenzyl)-8-methyl-4,7-dioxooctahydropyrazino[1,2-a]pyrimidin-3-yl]-1-(2-amino-3-methylbutyryl)pyrrolidine-2-carboxamide], the concentration for a half-maximal effect (EC50) worked out at 30.8 nM.

Consider `CC(C)C(N)C(=O)N1CCCC1C(=O)NC1CN(S(=O)(=O)c2ccc(Cl)cc2Cl)C2CN(C(C)C)C(=O)C(Cc3ccc(F)c(F)c3)N2C1=O` (stereo not drawn) [Example 9, N-[1-(2,4-Dichlorobenzenesulfonyl)-6-(3,4-difluorobenzyl)-8-isopropyl-4,7-dioxooctahydropyrazino[1,2-a]pyrimidin-3-yl]-1-(2-amino-3-methylbutyryl)pyrrolidine-2-carboxamide], for which the EC50 was determined as 1.5 nM.

As to `CC(C)C(N)C(=O)N1CCCC1C(=O)NC1CN(S(=O)(=O)c2ccc(Cl)cc2Cl)C2CN(C(C)C)C(=O)C(Cc3ccc(Cl)cc3)N2C1=O` (stereo not drawn) [Example 1, N-[6-(4-Chlorobenzyl)-1-(2,4-dichlorobenzenesulfonyl)-8-isopropyl-4,7-dioxooctahydropyrazino[1,2-a]pyrimidin-3-yl]-1-(2-amino-3-methylbutyryl)pyrrolidin-2-carboxamide], the 50% effective concentration (EC50) was 0.4 nM.

With `CC(C)N1CC2N(C(=O)C(NC(=O)C3CCCN3C(=O)CN)CN2S(=O)(=O)c2ccc(Cl)cc2Cl)C(Cc2ccc(Cl)cc2)C1=O` (stereo not drawn) [Example 2, N-[6-(4-Chlorobenzyl)-1-(2,4-dichlorobenzenesulfonyl)-8-isopropyl-4,7-dioxooctahydropyrazino[1,2-a]pyrimidin-3-yl]-1-(2-aminoacetyl)pyrrolidine-2-carboxamide], the concentration for a half-maximal effect (EC50) was 0.6 nM.

Take `CC(C)C(N)C(=O)N1CCCC1C(=O)NC1CN(S(=O)(=O)c2ccc(OC(F)(F)F)cc2Cl)C2CN(C(C)C)C(=O)C(Cc3ccc(Cl)cc3)N2C1=O` (stereo not drawn) [Example 7, N-[6-(4-Chlorobenzyl)-1-(2-chloro-4-trifluoromethoxybenzene-sulfonyl)-8-isopropyl-4,7-dioxooctahydropyrazino[1,2-a]-pyrimidin-3-yl]-1-(2-amino-3-methylbutyryl)pyrrolidine-2-carboxamide]: the EC50 is 2.6 nM.

With `CCN1CC2N(C(=O)C(NC(=O)C3CCCN3C(=O)C(N)C(C)C)CN2S(=O)(=O)c2ccc(Cl)cc2Cl)C(Cc2ccc(Cl)cc2)C1=O` (stereo not drawn) [Example 12, N-[6-(4-Chlorobenzyl)-1-(2,4-dichlorobenzenesulfonyl)-8-ethyl-4,7-dioxooctahydropyrazino[1,2-a]pyrimidin-3-yl]-1-(2-amino-3-methylbutyryl)pyrrolidine-2-carboxamide], the EC50 turned out to be 0.6 nM.

Regarding `CC(C)C(N)C(=O)N1CCCC1C(=O)NC1CN(S(=O)(=O)c2ccc(Cl)cc2F)C2CN(C(C)C)C(=O)C(Cc3ccc(Cl)cc3)N2C1=O` (stereo not drawn) [Example 8, N-[6-(4-Chlorobenzyl)-1-(4-chloro-2-fluorobenzenesulfonyl)-8-isopropyl-4,7-dioxooctahydropyrazino[1,2-a]pyrimidin-3-yl]-1-(2-amino-3-methylbutyryl)pyrrolidine-2-carboxamide], the EC50 was found to be 2.4 nM.

With `CC(N)C(=O)N1CCCC1C(=O)NC1CN(S(=O)(=O)c2ccc(Cl)cc2Cl)C2CN(C(C)C)C(=O)C(Cc3ccc(Cl)cc3)N2C1=O` (stereo not drawn) [Example 3, N-[6-(4-Chlorobenzyl)-1-(2,4-dichlorobenzenesulfonyl)-8-isopropyl-4,7-dioxooctahydropyrazino[1,2-a]pyrimidin-3-yl]-1-(2-aminopropionyl)pyrrolidine-2-carboxamide], the EC50 stood at 0.2 nM.

For a further assay, the system named is female NMRI mice. Nature of the assay: Anorectic effect: cumulative condensed milk consumption of fasted mice. Type of assay: in vivo. To be noted: oral dose 30 mg/kg by gavage after 24 hours food withdrawal, milk consumption determined for 7 hours, compared with vehicle-treated control animals. As for the experimental part:
The anorectic effect was tested on female NMRI mice. After withdrawal of food for 24 hours, the test product was administered by gavage. The animals were housed singly with free access to drinking water and were offered condensed milk 30 minutes after administration of the product. The condensed milk consumption was determined every half hour for 7 hours, and the general wellbeing of the animals was observed. The measured milk consumption was compared with the vehicle-treated control animals.
`CC(C)C(N)C(=O)N1CCCC1C(=O)NC1CN(S(=O)(=O)c2ccc(Cl)cc2Cl)C2CN(C(C)C)C(=O)C(Cc3ccc(Cl)cc3)N2C1=O` (stereo not drawn) [Example 1, N-[6-(4-Chlorobenzyl)-1-(2,4-dichlorobenzenesulfonyl)-8-isopropyl-4,7-dioxooctahydropyrazino[1,2-a]pyrimidin-3-yl]-1-(2-amino-3-methylbutyryl)pyrrolidin-2-carboxamide]: the “Reduction in the cumulative milk consumption as % of the control” value turned out to be 8%.
